The supplement of paper PMC10307832

Legend:
Midostaurin = compound: CO[C@@H]1[C@H](N(C)C(=O)c2ccccc2)C[C@H]2O[C@]1(C)n1c3ccccc3c3c4c(c5c6ccccc6n2c5c31)C(=O)NC4 [Midostaurin]; assay: relative viability (nuclei count vs DMSO), 5 days (fraction); higher = more cells survive
Procedure, shortened: (§1)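 Viability was defined as treated-well nuclei divided by vehicle-well nuclei, with the median taken over replicate plates. Cells from lung cancer lines sat overnight at 37 °C in 1536-well plates, received five √10-spaced library-drug doses by pinning on vehicle-anchored plates, and grew 5 days without medium change before one-step fixation, permeabilisation and Hoechst staining, 4× imaging and MetaXpress nuclear counts. Only plates with control CV under 25% and at least one doubling were kept.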

[1] = compound: COc1cc(-c2nn([C@H]3CC[C@H](N4CCN(C(C)=O)CC4)CC3)c3ncnc(N)c23)ccc1NC(=O)c1cc2ccccc2n1C; assay: as above
Procedure, shortened: as §1

Row | Cell Line | relative viability (Midostaurin; 0.01 µM) | relative viability (Midostaurin; 0.03162 µM) | relative viability (Midostaurin; 0.1 µM) | relative viability (Midostaurin; 0.3162 µM) | relative viability ([1]; 0.0128 µM) | relative viability ([1]; 0.04048 µM) | relative viability ([1]; 0.128 µM) | relative viability ([1]; 1.28 µM)
1 | NCI-H1975 | 0.888 | 0.971 | 0.878 | 0.799 | 0.958 | 0.972 | 0.875 | 0.479
2 | NCI-H1993 | 0.948 | 1.01 | 1.17 | 0.802 | 0.966 | 0.737 | 0.834 | 0.87
3 | NCI-H2009 | 0.972 | 0.904 | 0.961 | 0.939 | 1.01 | 0.861 | 0.927 | 0.973
4 | NCI-H2023 | 1.07 | 0.893 | 0.922 | 0.59 | 1.02 | 1.13 | 0.923 | 0.906
5 | NCI-H2085 | 1.06 | 0.889 | 1.02 | 0.919 | 1.01 | 1.01 | 0.99 | 0.992
6 | NCI-H2087 | 0.972 | 0.938 | 0.985 | 1.26 | 1.09 |  | 1.1 | 1.11
7 | NCI-H2126 | 1.02 | 0.872 | 0.999 | 1.02 | 1.04 | 1.01 | 0.963 | 0.792
8 | NCI-H2170 | 0.973 | 0.941 | 1.01 | 1 | 1.07 | 0.996 | 0.991 | 0.821
9 | NCI-H2228 | 1.02 | 0.969 | 1.22 | 1.18 | 1.22 | 1 | 1.12 | 0.744
10 | NCI-H2342 | 0.913 | 0.903 | 1.04 | 0.989 | 0.807 | 1.03 | 1 | 0.932
11 | NCI-H2347 | 1.12 | 0.97 | 1.06 | 1.09 | 1.01 | 0.781 | 1.04 | 1.08
12 | NCI-H2405 | 1.01 | 1.05 | 0.883 | 1.07 | 1.06 | 0.667 | 0.964 | 0.526
13 | NCI-H3122 | 1.03 | 0.962 | 0.95 | 1.05 | 1.07 |  | 0.987 | 0.76
14 | PC-3 [JPC-3] | 0.991 | 0.907 | 1.07 | 1.1 | 1.01 | 1.09 | 1.01 | 1.09
15 | PC-14 | 0.995 | 0.988 | 0.963 | 0.961 | 1.09 | 1.13 | 0.957 | 1.08
16 | RERF-LC-KJ | 1.02 | 1.01 | 1.04 | 1.04 | 1 | 0.991 | 0.94 | 0.896
17 | SK-LU-1 | 0.976 | 1.05 | 1.02 | 0.953 | 1.08 | 0.994 | 0.864 | 0.597
18 | SK-MES-1 | 0.998 | 0.92 | 0.967 | 0.89 | 1.02 | 1.07 | 1.01 | 0.912
19 | SW 900 | 0.821 | 0.777 | 0.964 | 0.745 | 1.03 | 0.986 | 0.788 | 1
20 | SW 1573 | 0.991 | 1.08 | 1.05 | 0.969 | 0.926 | 0.922 | 0.982 | 0.766
